Experimental findings from ChEMBL document CHEMBL5096169, “Recent progress in agents targeting polo-like kinases: Promising therapeutic strategies” (Eur J Med Chem, 2021) are described below.

Several values for one entry are separate records, joined by “and”; a condition that tells them apart may be missing. Equal entries are not always repeated. Where only a bound is given, the exact number is not on record here.

By IC50 is commonly meant the midpoint of a concentration-inhibition curve. For orientation: Kd means the constant that tells how readily two partners part at equilibrium. High values mean lower affinity, low ones higher affinity.

The target of test [1] is T1, Serine/threonine-protein kinase PLK1 (Homo sapiens, UniProt P53350). The test is described as follows: Inhibition of human PLK1-PBD (326 to 603 residues) expressed in Escherichia coli BL21(DE3) rosetta cells using 5-carboxyfluorescein-GPMQSpTPLNG-OH as substrate preincubated for 1 hr followed by substrate addition and measured after 1 to 2 hr by fluorescence polarization assay. A general note: Fluorescence polarisation rises when a labelled molecule tumbles more slowly, as on binding a larger partner.

The target of test [2] is T1, Serine/threonine-protein kinase PLK1. In words: Binding affinity to human PLK1-PBD (326 to 603 residues) expressed in Escherichia coli BL21(DE3) rosetta cells by microscale thermophoresis analysis.
Test [3] shares this target. In words: Inhibition of PLK1 (unknown origin).
The target is the same in test [4]. The test is described as follows: Inhibition of PLK1-PBD (unknown origin) using FITC-GPMQSpTPLNG-OH as substrate measured after 30 mins by Fluorescence polarization assay.
For the next test, the system named is MOLM-13. In words: Antiproliferative activity against human MOLM-13 cells assessed as inhibition of cell proliferation incubated for 24 hrs by CCK-8 assay. The class given is functional, cell-based. The note with it: MOLM-13, 24 h. In general terms: Tetrazolium assays rely on reduction of a dye to a coloured formazan, in cell work by metabolically active cells.

The subject of another test is KG-1. The test is described as follows: Antiproliferative activity against human KG-1 cells assessed as inhibition of cell proliferation incubated for 24 hrs by CCK-8 assay. The test is classed as functional, cell-based. Conditions: KG-1, 24 h.
In the next test the test system is CCRF-CEM. In words: Cytotoxicity against human CCRF-CEM cells assessed as reduction in cell viability incubated for 72 hrs by resazurin microplate assay. The test is classed as functional, cell-based. A general note: Resazurin is reduced to fluorescent resorufin, in cell work by metabolically active cells.
The target in test [5] is Serine/threonine-protein kinase PLK3 (Homo sapiens, UniProt Q9H4B4). In words: Inhibition of recombinant N-terminal MBP-tagged human PLK3-PBD expressed in Escherichia coli BL21(DE3) rosetta cells using 5-carboxyfluorescein-GPLATSpTPKNG-NH2 as substrate preincubated for 1 hr followed by substrate addition and measured after 1 hr by fluorescence polarization assay.
Test [6] concerns the target T1, Serine/threonine-protein kinase PLK1. The test is described as follows: Inhibition of human PLK1-PBD expressed in Escherichia coli BL21(DE3) rosetta cells using 5-carboxyfluorescein-GPMQSpTPLNG-OH as substrate preincubated for 1 hr followed by substrate addition and measured after 1 hr by fluorescence polarization assay.
The target in test [7] is Serine/threonine-protein kinase PLK2 (Homo sapiens, UniProt Q9NYY3). The test is described as follows: Inhibition of recombinant C-terminal 6His-tagged human PLK2-PBD expressed in Escherichia coli BL21(DE3) rosetta cells using 5-carboxyfluorescein-GPMQTSpTPKNG-OH as substrate preincubated for 1 hr followed by substrate addition and measured after 1 hr by fluorescence polarization assay.

Another test deals with ADR5000 cell line. In words: Cytotoxicity against human CEM/ADR5000 cells assessed as reduction in cell viability incubated for 72 hrs by resazurin microplate assay. The test is classed as functional, cell-based. The note with it: ADR5000, 72 h.

T1 sequence (P53350 whole entry, the tested form may be a part): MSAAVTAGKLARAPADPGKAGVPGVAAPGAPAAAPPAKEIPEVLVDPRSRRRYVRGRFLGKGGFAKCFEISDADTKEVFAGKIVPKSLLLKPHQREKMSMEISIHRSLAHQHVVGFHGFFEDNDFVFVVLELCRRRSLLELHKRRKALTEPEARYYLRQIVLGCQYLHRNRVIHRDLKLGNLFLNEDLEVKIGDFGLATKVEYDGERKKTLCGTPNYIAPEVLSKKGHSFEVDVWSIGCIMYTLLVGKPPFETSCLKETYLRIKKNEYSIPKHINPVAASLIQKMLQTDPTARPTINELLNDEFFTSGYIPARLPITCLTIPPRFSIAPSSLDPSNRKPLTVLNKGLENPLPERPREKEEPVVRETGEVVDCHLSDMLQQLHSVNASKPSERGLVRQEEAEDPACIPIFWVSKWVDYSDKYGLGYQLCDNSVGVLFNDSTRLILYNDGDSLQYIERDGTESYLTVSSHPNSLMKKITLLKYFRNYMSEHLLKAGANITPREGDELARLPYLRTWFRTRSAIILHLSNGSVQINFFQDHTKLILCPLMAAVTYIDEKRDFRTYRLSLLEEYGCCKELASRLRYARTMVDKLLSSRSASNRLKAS
Serine/threonine-protein kinase PLK3, sequence (Q9H4B4 whole entry): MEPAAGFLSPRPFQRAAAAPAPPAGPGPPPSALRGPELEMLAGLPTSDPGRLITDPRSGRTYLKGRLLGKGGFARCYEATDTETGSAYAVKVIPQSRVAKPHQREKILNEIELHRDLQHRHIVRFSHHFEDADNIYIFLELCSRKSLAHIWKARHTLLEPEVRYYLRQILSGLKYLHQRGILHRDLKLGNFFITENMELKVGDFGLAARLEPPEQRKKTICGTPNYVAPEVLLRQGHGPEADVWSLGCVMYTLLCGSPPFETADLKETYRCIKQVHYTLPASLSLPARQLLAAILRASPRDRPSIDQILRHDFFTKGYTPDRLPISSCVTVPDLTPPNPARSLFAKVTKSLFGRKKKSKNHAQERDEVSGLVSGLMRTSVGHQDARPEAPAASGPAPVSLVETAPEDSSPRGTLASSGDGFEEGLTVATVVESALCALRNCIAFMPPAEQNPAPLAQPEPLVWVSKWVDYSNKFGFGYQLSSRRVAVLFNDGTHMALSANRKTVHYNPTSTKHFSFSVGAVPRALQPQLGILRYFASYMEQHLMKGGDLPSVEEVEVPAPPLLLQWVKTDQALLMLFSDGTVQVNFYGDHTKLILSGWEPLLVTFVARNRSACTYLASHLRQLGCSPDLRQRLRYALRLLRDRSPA
Serine/threonine-protein kinase PLK2, sequence (Q9NYY3 whole entry): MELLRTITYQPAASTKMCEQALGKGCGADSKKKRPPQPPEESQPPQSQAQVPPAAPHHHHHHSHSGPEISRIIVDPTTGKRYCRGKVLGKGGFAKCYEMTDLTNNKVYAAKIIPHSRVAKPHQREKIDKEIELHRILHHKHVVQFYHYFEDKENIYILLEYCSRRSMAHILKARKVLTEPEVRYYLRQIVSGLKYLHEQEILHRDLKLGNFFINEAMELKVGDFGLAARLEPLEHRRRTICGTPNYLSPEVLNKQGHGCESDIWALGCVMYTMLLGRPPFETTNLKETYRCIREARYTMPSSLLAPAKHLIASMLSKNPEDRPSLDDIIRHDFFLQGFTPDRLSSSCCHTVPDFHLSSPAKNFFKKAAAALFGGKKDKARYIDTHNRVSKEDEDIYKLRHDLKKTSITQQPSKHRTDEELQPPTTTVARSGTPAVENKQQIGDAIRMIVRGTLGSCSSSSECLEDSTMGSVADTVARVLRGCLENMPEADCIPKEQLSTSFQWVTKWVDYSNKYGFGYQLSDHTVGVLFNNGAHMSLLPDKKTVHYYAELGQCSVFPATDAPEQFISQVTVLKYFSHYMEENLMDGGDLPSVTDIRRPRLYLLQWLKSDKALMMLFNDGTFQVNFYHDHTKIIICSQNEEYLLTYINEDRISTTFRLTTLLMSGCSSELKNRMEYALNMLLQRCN

Regarding `CCOC(=O)c1oc2ccccc2c1CBr`, inhibition in test [1] was half-maximal at 16.4 µM (IC50). The same molecule displayed a Kd in [2] of 12.8 µM.
On to `COc1cc2ncn(-c3cc(-c4cccc(C(F)(F)F)c4)c(C(N)=O)s3)c2cc1OC`, for which, in test [3], the IC50 is 0.0022 µM.
`CC(CC(=O)N[C@H](C(=O)N[C@@H](CO)C(=O)N[C@H](C(N)=O)[C@@H](C)OP(=O)(O)O)c1cncs1)NC(=O)c1ccc(CO)cc1` (single isomer, unassigned): in test [4], the IC50 was determined as 0.267 µM.
As to `CC[C@@H]1C(=O)N(C)c2cnc(Nc3ccc(C(=O)NCCOCCOCCOCCNc4cccc5c4C(=O)N(C4CCC(=O)NC4=O)C5=O)cc3OC)nc2N1C1CCCC1` (stereo partly specified), the half-maximal inhibitory concentration (IC50) with MOLM-13 was found to be 0.00621 µM; in the test on KG-1, 0.00694 µM.
Regarding `C[C@@]12CN(Cc3cccc(C#N)c3)C[C@@](C)(C1)c1c(-c3ccc4ccccc4c3)ccc(=O)n1C2`, the IC50 in the test on CCRF-CEM is 11.4 µM; in test [5] it was over 100 µM; in [6], 17.9 µM and 95.5 µM; in [7], 95.5 µM; in the test with ADR5000 cell line, 13.5 µM.
